Reference: paper PMC6843816, “Angiotensin Converting Enzyme (ACE)-Peptide Interactions: Inhibition Kinetics, In Silico Molecular Docking and Stability Study of Three Novel Peptides Generated from Palm Kernel Cake Proteins” (Biomolecules, 2019)
Values joined by “and” are separate entries in the source; they are usually repeats but may differ in a detail not shown here. Identical values can stand only once. Like-named read-outs stand apart in the source and are kept apart here. Peptide text beside a SMILES is read from it.

Key:
[1] = target: T1, angiotensin-converting enzyme (ACE) (Oryctolagus cuniculus, UniProt P12822); assay: Peptide stability study: hydrolysis of peptides by ACE, RP-HPLC; assay type: in vitro ADME, rabbit; conditions: 37 °C, peptide 4 mM; for metabolised at 0.5 h, 2.4 mM / metabolised at 1 h, 2.4 mM / metabolised at 2 h, 2.4 mM / metabolised at 3 h, 2.4 mM: rabbit, isolated angiotensin-converting enzyme (ACE), read-out: Cleavage (%); for metabolised at 1 h, 2.4 mM: incubation with ACE 1 h; for metabolised at 2 h, 2.4 mM: incubation with ACE 2 h
T1 construct: Angiotensin-I-converting enzyme (rabbit lung); purchased Sigma Chemical Co., (St Louis, MO, USA); host or cells: rabbit lung tissue
T1 sequence (P12822 34-1310): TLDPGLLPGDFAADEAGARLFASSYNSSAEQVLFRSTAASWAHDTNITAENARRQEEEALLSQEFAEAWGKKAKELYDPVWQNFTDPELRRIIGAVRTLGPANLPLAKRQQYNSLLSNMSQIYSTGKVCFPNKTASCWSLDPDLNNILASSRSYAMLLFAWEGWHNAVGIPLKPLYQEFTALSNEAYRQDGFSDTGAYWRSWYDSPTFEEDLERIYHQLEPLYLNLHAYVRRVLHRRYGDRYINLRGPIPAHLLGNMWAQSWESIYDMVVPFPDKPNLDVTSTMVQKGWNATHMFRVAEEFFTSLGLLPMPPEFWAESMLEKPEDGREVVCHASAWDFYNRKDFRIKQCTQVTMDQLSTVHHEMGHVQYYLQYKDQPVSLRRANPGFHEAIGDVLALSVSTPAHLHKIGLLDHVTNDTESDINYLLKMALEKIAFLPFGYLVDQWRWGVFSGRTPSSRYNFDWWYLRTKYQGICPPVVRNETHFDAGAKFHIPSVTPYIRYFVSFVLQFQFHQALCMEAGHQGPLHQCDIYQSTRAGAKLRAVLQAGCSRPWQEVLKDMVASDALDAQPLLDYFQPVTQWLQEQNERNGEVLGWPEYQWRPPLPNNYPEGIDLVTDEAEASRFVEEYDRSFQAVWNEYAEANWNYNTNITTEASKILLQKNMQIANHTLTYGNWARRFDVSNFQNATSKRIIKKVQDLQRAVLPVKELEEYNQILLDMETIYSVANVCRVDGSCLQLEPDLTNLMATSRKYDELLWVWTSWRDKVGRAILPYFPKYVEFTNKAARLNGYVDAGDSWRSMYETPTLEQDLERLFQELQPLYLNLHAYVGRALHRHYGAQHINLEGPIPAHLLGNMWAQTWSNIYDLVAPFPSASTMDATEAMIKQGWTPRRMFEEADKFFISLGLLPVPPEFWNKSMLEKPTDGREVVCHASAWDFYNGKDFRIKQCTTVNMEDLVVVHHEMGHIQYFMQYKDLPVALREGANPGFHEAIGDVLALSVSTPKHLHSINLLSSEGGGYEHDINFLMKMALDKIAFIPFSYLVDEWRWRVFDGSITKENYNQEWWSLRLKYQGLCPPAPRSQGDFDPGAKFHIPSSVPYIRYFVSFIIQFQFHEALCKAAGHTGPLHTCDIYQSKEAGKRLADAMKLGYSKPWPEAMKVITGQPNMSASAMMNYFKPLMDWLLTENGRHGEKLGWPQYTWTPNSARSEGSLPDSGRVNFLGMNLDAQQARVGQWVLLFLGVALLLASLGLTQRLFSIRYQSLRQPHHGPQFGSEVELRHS
Method: Peptide stability study was carried out using the method described by Forghani et al. and Yang, Marczak, Yokoo, Usui and Yoshikawa with modifications. Each peptide solution (225 µL), at a concentration of 4 mM, was incubated with 150 µl of ACE (100 mU/mL) at 37 °C and incubation time of 0, 0.5, 1, 2 and 3 h. Peptide samples were withdrawn at their respective incubation time separately and kept in ice prior to analysis by HPLC. A 20-µL sample was loaded onto a Hypersil GOLD C18 column (4.6 × 250 mm) attached to a LC 20AT apparatus (Shimadzu Co., Kyoto, Japan). The column was conditioned with eluent A (0.1% TFA in DW) and eluted with 100% eluent A from 0 to 10 min. The peptides were eluted with eluent B (0.1% TFA in CH3CN) with a gradient elution of 0–100% for 10–50 min. The absorbance was read at 215 nm.

[2] = target: T1, angiotensin-converting enzyme (ACE); assay: ACE-inhibitory capacity of peptides with and without pre-incubation with ACE; IC50; assay type: biochemical, rabbit; conditions: for IC50: unit given, not in Table 5, read-out: ACE Inhibition (IC50); for ACE-Inhibitory Capacity (%) Without Pre-Incubation: without pre-incubation with ACE
ACE = conditions: read-out: Kiu, cited from earlier work
[3] = target: T1, angiotensin-converting enzyme (ACE); assay: Kinetics study of ACE inhibition (Michaelis-Menten and Lineweaver-Burk plots, HHL substrate); assay type: biochemical, rabbit; conditions: from plot of 1/Vmax against inhibitor concentration; read-out: Kiu (mM) (enzyme-inhibitor dissociation constant)
Method: Mode of enzyme inhibition, maximum initial velocity (Vmax), Michaelis-Menten constant (Km), inhibitory constant (Ki) and catalytic efficiency were determined using Michaeles-Menten and Lineweaver-Burk plots of 1/v versus 1/[S].
Enzyme activity was shown as nmol hippuric acid produced per min of enzymatic reaction. Michaelis-Menten and Lineweaver-Burk plots were created using GRAPHPAD PRISM 6.07 (GraphPad, Software Inc., San Diego, CA, USA) software. Vmax and Km were calculated using the same software. Kiu was calculated from the plot of 1/Vmax against inhibitor concentration at the intercept on the inhibitor concentration axis).

[4] = peptides generated from Stichopus horrens

Compound	Cleavage (%) ([1]; incubation with ACE 0.5 h)	Cleavage (%) ([1]; incubation with ACE 3 h)	metabolised at 0.5 h, 2.4 mM ([1]; incubation with ACE 0.5 h) [%]	metabolised at 1 h, 2.4 mM [1] [%]	metabolised at 2 h, 2.4 mM [1] [%]	metabolised at 3 h, 2.4 mM ([1]; incubation with ACE 3 h) [%]	IC50 [2] [µM]	ACE-Inhibitory Capacity (%) With Pre-Incubation [2] [%]	ACE-Inhibitory Capacity (%) Without Pre-Incubation [2] [%]	Ki (ACE; [4]) [µM]	Ki (ACE; ref Udenigwe, et al. 31) [µM]	Ki [3] [mM]
CC(C)C[C@H](NC(=O)[C@H](CC(C)C)NC(=O)[C@H](CC(C)C)NC(=O)[C@@H](N)Cc1ccc(O)cc1)C(=O)N[C@@H](CCCCN)C(=O)O [YLLLK] (H-YLLLK-OH; N-terminus and C-terminus assumed)	91.7	94% and 94.3%	92 ± 2.8	93 ± 1.9	94 ± 3	94 ± 2.7	47	80 ± 2.04	100 ± 2.99	–	–	–
VSRHFASYAN	–	–	–	–	–	–	–	–	–	610	–	–
SAAVGSP	–	–	–	–	–	–	–	–	–	1570	–	–
CRQNTLGHNTQTSIAQ	–	–	–	–	–	–	–	–	–	210	–	–
WVYY	–	–	–	–	–	–	–	–	–	–	60	–
C[C@H](NC(=O)[C@@H](N)Cc1c[nH]c2ccccc12)C(=O)N[C@@H](Cc1ccccc1)C(=O)N[C@@H](CO)C(=O)O [WAFS] (H-WAFS-OH; N-terminus and C-terminus assumed)	43	68%	43 ± 2	42 ± 1.6	63 ± 3	68 ± 3.4	202	56 ± 1.34	55 ± 1.81	–	–	2
CC(C)C[C@H](NC(=O)[C@H](CC(C)C)NC(=O)[C@H](C)NC(=O)[C@H](Cc1ccc(O)cc1)NC(=O)[C@H](Cc1c[nH]cn1)NC(=O)CNC(=O)[C@H](C)NC(=O)CNC(=O)[C@H](CCC(=O)O)NC(=O)[C@H](CCC(N)=O)NC(=O)[C@@H](NC(=O)CN)C(C)C)C(=O)O [GVQEGAGHYALL] (H-GVQEGAGHYALL-OH; N-terminus and C-terminus assumed)	46	97%	46 ± 1.5	65 ± 2.6	86 ± 3.1	97 ± 3.4	239	75 ± 2.11	70 ± 1.15	–	–	3.18
